Measurements published in patent publication US20240109853A1 (Shanghai Yao Yuan Biotechnology Co., Ltd., priority 2020, published 2024).
pIC50: −log10 of the molar value. Where a name gives a salt, the structure may show the parent alone.

Key:
[1] = molecular target: ALPK1 (Homo sapiens (Human), UniProt Q96QP1); experiment: ALPK1 in vitro kinase assay (HTRF of TIFA phosphorylation); format: biochemical
[2] = system: ALPK1-dependent NFκB reporter gene activation in HEK293 cells stably expressing an NF-kB reporter (G9 cells); experiment: NFκB gene reporter alkaline phosphatase assay; format: cell-based; settings: Homo sapiens, HEK293; read-out: NFkB assay IC50
Outline: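 Read-out: chromogenic pNPP turnover by NF-kB-driven alkaline phosphatase in G9 cells (HEK293, stable reporter). Compound pre-incubation 30 min before agonist D-glycero-D-manno-6-fluoro-heptose-1β-S-ADP. IC50 by four-parameter logistic regression.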

Sequence of ALPK1 (Q96QP1 whole entry): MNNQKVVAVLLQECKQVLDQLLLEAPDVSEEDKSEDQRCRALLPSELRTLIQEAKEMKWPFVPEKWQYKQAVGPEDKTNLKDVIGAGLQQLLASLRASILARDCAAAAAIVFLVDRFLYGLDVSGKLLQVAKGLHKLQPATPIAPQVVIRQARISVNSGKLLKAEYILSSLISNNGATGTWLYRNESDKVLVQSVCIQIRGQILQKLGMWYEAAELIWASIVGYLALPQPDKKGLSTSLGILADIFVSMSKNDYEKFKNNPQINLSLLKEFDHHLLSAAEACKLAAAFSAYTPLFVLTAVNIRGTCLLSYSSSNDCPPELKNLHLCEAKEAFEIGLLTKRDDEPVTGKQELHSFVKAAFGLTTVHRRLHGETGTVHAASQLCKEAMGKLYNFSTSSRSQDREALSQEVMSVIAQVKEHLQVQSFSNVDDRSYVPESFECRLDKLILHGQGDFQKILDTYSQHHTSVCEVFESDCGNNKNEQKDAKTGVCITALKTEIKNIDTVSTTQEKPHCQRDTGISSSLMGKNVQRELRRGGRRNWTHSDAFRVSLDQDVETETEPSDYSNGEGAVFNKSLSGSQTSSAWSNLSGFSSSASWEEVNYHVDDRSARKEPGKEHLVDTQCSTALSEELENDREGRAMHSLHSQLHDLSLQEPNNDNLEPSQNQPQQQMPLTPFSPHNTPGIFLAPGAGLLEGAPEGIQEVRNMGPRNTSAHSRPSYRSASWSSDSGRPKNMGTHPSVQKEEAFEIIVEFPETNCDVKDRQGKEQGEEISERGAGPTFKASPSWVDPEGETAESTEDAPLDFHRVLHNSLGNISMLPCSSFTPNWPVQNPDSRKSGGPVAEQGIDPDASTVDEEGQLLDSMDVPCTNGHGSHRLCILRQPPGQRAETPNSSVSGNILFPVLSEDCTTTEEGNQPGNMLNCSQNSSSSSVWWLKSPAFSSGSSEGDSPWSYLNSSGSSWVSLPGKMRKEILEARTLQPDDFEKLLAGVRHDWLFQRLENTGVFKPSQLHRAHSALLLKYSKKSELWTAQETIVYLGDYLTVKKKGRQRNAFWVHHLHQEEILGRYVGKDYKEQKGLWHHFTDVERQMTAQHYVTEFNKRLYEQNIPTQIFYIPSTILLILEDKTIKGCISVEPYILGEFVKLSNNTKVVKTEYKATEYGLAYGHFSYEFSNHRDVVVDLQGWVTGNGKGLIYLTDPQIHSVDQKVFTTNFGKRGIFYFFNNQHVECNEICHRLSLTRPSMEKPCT

| SMILES | pIC50 [1] | pIC50 [2] |
| --- | --- | --- |
| COc1ccc(C(C)(C)c2csc(NC(=O)NCCCS(=O)(=O)N3CCC(N)C3)n2)cc1 (centres unmarked) [Example A229, 1-(3-((3-aminopyrrolidin-1-yl)sulfonyl)propyl)-3-(4-(2-(4-methoxyphenyl)propan-2-yl)thiazol-2-yl)urea] | 6.77 | 5.64 |
| COc1ccc(C(C)(C)c2csc(NC(=O)NCCCS(=O)(=O)N3CCNCC3)n2)cc1 [Example A230, 1-(4-(2-(4-methoxyphenyl)propan-2-yl)thiazol-2-yl)-3-(3-(piperazin-1-ylsulfonyl)propyl)urea] | 6.90 | 5.52 |
| COc1ccc(C(C)(C)c2csc(NC(=O)NCc3cc(F)c(N4CCNCC4)cc3F)n2)cc1 [Example A231, 1-(2,5-difluoro-4-(piperazin-1-yl)benzyl)-3-(4-(2-(4-methoxyphenyl)propan-2-yl)thiazol-2-yl)urea hydrochloride] | 7.57 | 5.47 |
| COc1ccc(C(C)(C)c2csc(NC(=O)NCc3cc(F)c(N4CC5CC(C4)N5)c(F)c3)n2)cc1 [Example A232] | 7.06 | 6.23 |
| COc1ccc(C(C)(C)c2csc(NC(=O)N3CC(c4ccc(N5CCNCC5)cc4)C3)n2)cc1 [Example A233, N-(4-(2-(4-methoxyphenyl)propan-2-yl)thiazol-2-yl)-3-(4-(piperazin-1-yl)phenyl)azetidine-1-carboxamide] | 7.37 | 6.48 |
| O=C(Nc1nc(C2(c3ccc(Br)cc3)CCCC2)cs1)N1CC(c2ccc(N3CCNCC3)c(F)c2)C1 [Example A236, N-(4-(1-(4-bromophenyl)cyclopent-yl)thiazol-2-yl)-3-(3-fluoro-4-(piperazin-1-yl)phenyl)azetidine-1-carboxamide] | 7.89 | 5.35 |
| C#CC(C)(c1ccc(Br)cc1)c1csc(NC(=O)N2CC(c3ccc(N4CCNCC4)cc3)C2)n1 (centres unmarked) [Example A237, N-(4-(2-(4-bromophenyl)but-3-yn-2-yl)thiazol-2-yl)-3-(4-(piperazin-1-yl)phenyl)azetidine-1-carboxamide] | 8.15 | 6.21 |
| C#CC(C)(c1ccc(Br)cc1)c1csc(NC(=O)NCC2(O)CCNCC2)n1 (centres unmarked) [Example A238, 1-(4-(2-(4-bromophenyl)but-3-yn-2-yl)thiazol-2-yl)-3-((4-hydroxypiperidin-4-yl)methyl)urea] | 7.72 | 4.57 |
| COc1ccc(C(C)(C)c2csc(NC(=O)NC3(c4ccc(N5CCNCC5)cc4)CC3)n2)cc1 [Example A240, 1-(4-(2-(4-methoxyphenyl)propan-2-yl)thiazol-2-yl)-3-(1-(4-(piperazin-1-yl)phenyl)cyclopropyl)u-rea] | 7.01 | 5.73 |
| CCNC(=O)Nc1nc(C(C)(C)c2ccc(Br)cc2)cs1 [Example A241, 1-(4-(2-(4-bromophenyl)propan-2-yl)thiazol-2-yl)-3-ethylurea] | 7.01 | 5.47 |
| CCNC(=O)Nc1nc(C(C)(C)c2ccc(OC)cc2)cs1 [Example A242, 1-ethyl-3-(4-(2-(4-methoxyphenyl)propan-2-yl)thiazol-2-yl)urea] | 7.38 | 6.01 |
| C#CC(C)(c1ccc(Cl)cc1)c1csc(NC(=O)NCCS(N)(=O)=O)n1 (centres unmarked) [Example A243, 2-(3-(4-(2-(4-chlorophenyl)but-3-yn-2-yl)thiazol-2-yl)ureido)ethane-1-sulfonamide] | 7.64 | 6.23 |
| C#C[C@](C)(c1ccc(Cl)cc1)c1csc(NC(=O)N2CC(c3ccc(N4CCNCC4)c(F)c3)C2)n1 [Example A246, (R)-N-(4-(2-(4-chlorophenyl)but-3-yn-2-yl)thiazol-2-yl)-3-(3-fluoro-4-(piperazin-1-yl)phenyl)azetidine-1-carboxamide] | 7.54 | 5.80 |
| C#C[C@](C)(c1ccc(Cl)cc1)c1csc(NC(=O)NCCC(C)(C)O)n1 [Example A250, (R)-1-(4-(2-(4-chlorophenyl)but-3-yn-2-yl)thiazol-2-yl)-3-(3-hydroxy-3-methylbutyl)urea] | 6.38 | 5.93 |
| C#CC(C)(c1ccc(Cl)cc1)c1csc(NC(=O)N(CCO)CCO)n1 (centres unmarked) [Example A253, 3-(4-(2-(4-chlorophenyl)but-3-yn-2-yl)thiazol-2-yl)-1,1-bis(2-hydroxyethyl)urea] | 6.76 | 5.52 |
| C#CC(C)(c1ccc(Cl)cc1)c1csc(NC(=O)N(C)CCO)n1 (centres unmarked) [Example A254, 3-(4-(2-(4-chlorophenyl)but-3-yn-2-yl)thiazol-2-yl)-1-(2-hydroxyethyl)-1-methylurea] | 6.26 | 5.68 |
| C#C[C@@](C)(c1ccc(OC)cc1)c1csc(NC(=O)N2CC(CO)C2)n1 [Example A256, (S)-3-(hydroxymethyl)-N-(4-(2-(4-methoxyphenyl)but-3-yn-2-yl)thiazol-2-yl)azetidine-1-carboxamide] | 6.56 | 4.84 |
| C#C[C@](C)(c1ccc(Cl)cc1)c1csc(NC(=O)N2CC(CO)C2)n1 [Example A257, (R)-N-(4-(2-(4-chlorophenyl)but-3-yn-2-yl)thiazol-2-yl)-3-(hydroxymethyl)azetidine-1-carboxamide] | 5.81 | 5.70 |
| C#C[C@@](C)(c1ccc(Cl)cc1)c1csc(NC(=O)N2CC(CO)C2)n1 [Example A258, (S)-N-(4-(2-(4-chlorophenyl)but-3-yn-2-yl)thiazol-2-yl)-3-(hydroxymethyl)azetidine-1-carboxamide] | 6.45 | 5.88 |
| C#CC(C)(c1ccc(Cl)cc1)c1csc(NC(=O)N2CC(CN3CCNCC3)C2)n1 (centres unmarked) [Example A259, N-(4-(2-(4-chlorophenyl)but-3-yn-2-yl)thiazol-2-yl)-3-(piperazin-1-ylmethyl)azetidine-1-carboxamide] | 7.32 | 6.36 |
| C#CC(C)(c1ccc(Cl)cc1)c1csc(NC(=O)NCc2ccc(N3CCNCC3)c(F)c2)n1 (centres unmarked) [Example A262, 1-(4-(2-(4-chlorophenyl)but-3-yn-2-yl)thiazol-2-yl)-3-(3-fluoro-4-(piperazin-1-yl)benzyl)urea] | 7.89 | 6.17 |
| C#CC(C)(c1ccc(Cl)cc1)c1csc(NC(=O)N2CC(CN3CCC(N)CC3)C2)n1 (centres unmarked) [Example A263, 3-((4-aminopiperidin-1-yl)methyl)-N-(4-(2-(4-chlorophenyl)but-3-yn-2-yl)thiazol-2-yl)azetidine-1-carboxamide] | 7.41 | 5.84 |
| C#CC(C)(c1ccc(Cl)cc1)c1csc(NC(=O)N2CCC(CO)CC2)n1 (centres unmarked) [Example A264, N-(4-(2-(4-chlorophenyl)but-3-yn-2-yl)thiazol-2-yl)-4-(hydroxymethyl)piperidine-1-carboxamide] | 5.86 | 5.55 |
| C#CC(C)(c1ccc(Cl)cc1)c1csc(NC(=O)N2CCC(N)CC2)n1 (centres unmarked) [Example A265, 4-amino-N-(4-(2-(4-chlorophenyl)but-3-yn-2-yl)thiazol-2-yl)piperidine-1-carboxamide] | 5.30 | 5.54 |
| C#CC(C)(c1ccc(Cl)cc1)c1csc(NC(=O)NCC(C)(C)O)n1 (centres unmarked) [Example A268, 1-(4-(2-(4-chlorophenyl)but-3-yn-2-yl)thiazol-2-yl)-3-(2-hydroxy-2-methylpropyl)urea] | 6.66 | 5.88 |
